Experimental data as given in publication PMC6968676, “Inhibition survey with phenolic compounds against the δ- and η-class carbonic anhydrases from the marine diatom thalassiosira weissflogii and protozoan Plasmodium falciparum” (Journal of Enzyme Inhibition and Medicinal Chemistry, 2019).

Target: T1, TweCA (TweCAδ) (Conticribra weissflogii, UniProt Q5U9J1)
T1 construct: gene ca1; recombinant, obtained in-house as reported earlier
T1 sequence (Q5U9J1 1-281): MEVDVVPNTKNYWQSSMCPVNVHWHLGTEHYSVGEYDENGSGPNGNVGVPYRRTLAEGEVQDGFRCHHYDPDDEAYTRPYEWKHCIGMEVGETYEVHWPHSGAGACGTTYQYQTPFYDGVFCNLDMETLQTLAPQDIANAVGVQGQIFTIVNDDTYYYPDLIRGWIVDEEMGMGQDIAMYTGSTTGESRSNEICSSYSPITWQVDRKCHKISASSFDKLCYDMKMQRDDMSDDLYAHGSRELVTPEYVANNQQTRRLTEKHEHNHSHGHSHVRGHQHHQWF
Experiment: stopped-flow CO2 hydration assay
Assay type: biochemical

SMILES	Ki [µM]
Oc1cc(F)ccc1F [compound 15, R = 2,5-diF]	30.7
Oc1ccccc1O [compound 2, R = 2-OH]	4.5
Nc1cc(O)ccc1Cl [compound 13, R = 3-NH2-4-Cl]	> 100
Oc1cccc(O)c1 [compound 3, R = 3-OH]	48.2
O=C(O)c1ccc(O)c(O)c1 [compound 18, R = 4-COOH-2-OH]	4.9
CC(=O)Nc1ccc(O)cc1 [compound 8, R = 4-NHCOCH3]	7.9
Nc1ccc(O)c(Cl)c1 [compound 14, R = 4-NH2-2-Cl]	> 100
O=C(O)c1c(O)cccc1O [compound 19, R = 2-COOH-3-OH]	2.7
Oc1cc(F)cc(F)c1 [compound 16, R = 3,5-diF]	21
O=C(O)/C=C/c1ccc(O)c(O)c1 [compound 22, R = 2-OH-4-(CHCHCOOH)]	5.9
Nc1ccc(O)cc1 [compound 7, R = 4-NH2]	17.6
Oc1c(F)cc(F)cc1F [compound 17, R = 2,4,6-triF]	13.8
O=C(O)c1cc(O)ccc1O [compound 20, R = 2-COOH-4-OH]	0.81
O=C(O)c1ccc(O)cc1 [compound 11, R = 4-COOH]	1.4
Oc1ccc(O)cc1 [compound 4, R = 4-OH]	34.9
N#Cc1ccc(O)cc1 [compound 9, R = 4-CN]	56.9
O=C(O)/C=C/c1ccc(O)cc1 [compound 21, R = 4-(CHCHCOOH)]	14.5
O=C(O)c1ccccc1O [compound 10, R = 2-COOH]	0.95
Oc1ccc(O)c(O)c1 [compound 5, R = 2,4-diOH]	2
Oc1ccccc1 [compound 1, phenol (R = H)]	52.3
Nc1cccc(O)c1 [compound 6, R = 3-NH2]	65.4
OCc1ccc(O)cc1 [compound 12, R = 4-CH2OH]	35.9
